Measured values reported in patent US7250442B2, “Dihydroindol-2-one derivatives as steroid hormone nuclear receptor modulators” (Eli Lilly and Company, priority 2003, dated 2007).

Target: T1, human MR (Homo sapiens, UniProt P08235)
T1 construct: The full length human MR gene is cloned from a human kidney or human brain cDNA library; made in house; host or cells: Sf9 insect cells (baculovirus, pAcHLT transfer vector)
T1 sequence (P08235 1-984): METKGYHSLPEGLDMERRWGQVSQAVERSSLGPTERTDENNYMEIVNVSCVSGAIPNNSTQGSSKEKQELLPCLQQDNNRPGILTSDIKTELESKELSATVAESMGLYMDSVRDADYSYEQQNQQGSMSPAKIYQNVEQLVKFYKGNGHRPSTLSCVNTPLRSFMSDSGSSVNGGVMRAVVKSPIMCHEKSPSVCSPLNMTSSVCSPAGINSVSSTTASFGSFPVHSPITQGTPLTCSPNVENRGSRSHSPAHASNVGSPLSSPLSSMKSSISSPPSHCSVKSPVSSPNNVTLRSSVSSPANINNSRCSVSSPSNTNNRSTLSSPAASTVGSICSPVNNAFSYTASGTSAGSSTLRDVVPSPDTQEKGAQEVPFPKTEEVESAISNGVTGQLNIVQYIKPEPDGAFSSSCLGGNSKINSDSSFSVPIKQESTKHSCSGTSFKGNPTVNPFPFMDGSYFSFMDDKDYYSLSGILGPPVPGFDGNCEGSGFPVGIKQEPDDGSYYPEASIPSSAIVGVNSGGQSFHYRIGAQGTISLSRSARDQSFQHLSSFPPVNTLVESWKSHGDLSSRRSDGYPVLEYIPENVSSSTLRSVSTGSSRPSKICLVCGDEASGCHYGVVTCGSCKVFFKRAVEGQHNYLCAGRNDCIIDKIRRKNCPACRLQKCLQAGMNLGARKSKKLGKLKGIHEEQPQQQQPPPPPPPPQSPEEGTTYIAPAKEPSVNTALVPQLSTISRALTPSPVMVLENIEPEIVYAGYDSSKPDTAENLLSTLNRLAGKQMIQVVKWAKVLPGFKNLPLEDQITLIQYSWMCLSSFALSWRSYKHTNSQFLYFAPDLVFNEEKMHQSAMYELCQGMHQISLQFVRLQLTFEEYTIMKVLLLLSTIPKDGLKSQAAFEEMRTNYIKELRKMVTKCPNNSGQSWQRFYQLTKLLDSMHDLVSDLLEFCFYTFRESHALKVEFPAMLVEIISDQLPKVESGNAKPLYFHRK
Assay: Mineralocorticoid Receptor Binding Assay ([3H]-aldosterone displacement)
Settings: full length human MR expressed in Sf9 cells, 0.5 nM [3H]-aldosterone
Method in brief: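 Full-length human MR expressed in Sf9 cells; lysate (20-25 μg protein) incubated with 0.5 nM [3H]-aldosterone and test compound in molybdate/Tris/phosphate/glycerol buffer pH 7.5, 16 h at 4 °C. Bound ligand measured by filtration and scintillation counting; IC50 converted to Ki via Cheng-Prusoff.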

Ki, ≤ 0.5 µM:
Cc1cc(C2(c3cc(C)c(O)c(C)c3)C(=O)N(Cc3ccc(OCc4ccccc4)cc3)c3ccccc32)cc(C)c1O [Example 74, 1-(4-Benzyloxy-benzyl)-3,3-bis-(4-hydroxy-3,5-dimethyl-phenyl)-1,3-dihydro-indol-2-one]
Cc1cc(C2(c3cc(C)c(O)c(C)c3)C(=O)N(Cc3c(F)cccc3Cl)c3ccccc32)cc(C)c1O [Example 76, 1-(2-Chloro-6-fluoro-benzyl)-3,3-bis-(4-hydroxy-3,5-dimethyl-phenyl)-1,3-dihydro-indol-2-one]
CCCCCN1C(=O)C(c2cc(C)c(O)c(C)c2)(c2cc(C)c(O)c(C)c2)c2ccccc21 [Example 77, 3,3-Bis-(4-hydroxy-3,5-dimethyl-phenyl)-1-pentyl-1,3-dihydro-indol-2-one]
Cc1cc(C2(c3cc(C)c(O)c(C)c3)C(=O)N(CC#N)c3ccccc32)cc(C)c1O [Example 78, [3,3-Bis-(4-hydroxy-3,5-dimethyl-phenyl)-2-oxo-2,3-dihydro-indol-1-yl]-acetonitrile]
Cc1cc(C2(c3cc(C)c(O)c(C)c3)C(=O)N(Cc3ccccc3OC(F)F)c3ccccc32)cc(C)c1O [Example 79, 1-(2-Difluoromethoxy-benzyl)-3,3-bis-(4-hydroxy-3,5-dimethyl-phenyl)-1,3-dihydro-indol-2-one]
CCOCCN1C(=O)C(c2cc(C)c(O)c(C)c2)(c2cc(C)c(O)c(C)c2)c2ccccc21 [Example 80, 1-(2-Ethoxy-ethyl)-3,3-bis-(4-hydroxy-3,5-dimethyl-phenyl)-1,3-dihydro-indol-2-one]
Cc1cc(C2(c3cc(C)c(O)c(C)c3)C(=O)N(Cc3ccc(Cl)cc3F)c3ccccc32)cc(C)c1O [Example 83, 1-(4-Chloro-2-fluoro-benzyl)-3,3-bis-(4-hydroxy-3,5-dimethyl-phenyl)-1,3-dihydro-indol-2-one]
Cc1cc(C2(c3cc(C)c(O)c(C)c3)C(=O)N(Cc3ccc(-c4csnn4)cc3)c3ccccc32)cc(C)c1O [Example 84, 3,3-Bis-(4-hydroxy-3,5-dimethyl-phenyl)-1-(4-[1,2,3]thiadiazol-4-yl-benzyl)-1,3-dihydro-indol-2-one]
Cc1cc(C2(c3cc(C)c(O)c(C)c3)C(=O)N(Cc3cccc([N+](=O)[O-])c3)c3ccccc32)cc(C)c1O [Example 85, 3,3-Bis-(4-hydroxy-3,5-dimethyl-phenyl)-1-(3-nitro-benzyl)-1,3-dihydro-indol-2-one]
Cc1cc(C2(c3cc(C)c(O)c(C)c3)C(=O)N(Cc3noc(C4CCC4)n3)c3ccccc32)cc(C)c1O [Example 86, 1-(5-Cyclobutyl-[1,2,4]oxadiazol-3-ylmethyl)-3,3-bis-(4-hydroxy-3,5-dimethyl-phenyl)-1,3-dihydro-indol-2-one]
Cc1cc(C2(c3cc(C)c(O)c(C)c3)C(=O)N(Cc3noc(-c4ccco4)n3)c3ccccc32)cc(C)c1O [Example 87, 1-(5-Furan-2-yl-[1,2,4]oxadiazol-3-ylmethyl)-3,3-bis-(4-hydroxy-3,5-dimethyl-phenyl)-1,3-dihydro-indol-2-one]
CCc1nc(CN2C(=O)C(c3cc(C)c(O)c(C)c3)(c3cc(C)c(O)c(C)c3)c3ccccc32)cs1 [Example 90, 1-(2-Ethyl-thiazol-4-ylmethyl)-3,3-bis-(4-hydroxy-3,5-dimethyl-phenyl)-1,3-dihydro-indol-2-one]
Cc1cc(C2(c3cc(C)c(O)c(C)c3)C(=O)N(Cc3csc(-c4ccccc4)n3)c3ccccc32)cc(C)c1O [Example 91, 3,3-Bis-(4-hydroxy-3,5-dimethyl-phenyl)-1-(2-phenyl-thiazol-4-ylmethyl)-1,3-dihydro-indol-2-one]
Cc1ccc2c(c1)C(c1cc(C)c(O)c(C)c1)(c1cc(C)c(O)c(C)c1)C(=O)N2Cc1csc(-c2ccccc2)n1 [Example 92, 3,3-Bis-(4-hydroxy-3,5-dimethyl-phenyl)-5-methyl-1-(2-phenyl-thiazol-4-ylmethyl)-1,3-dihydro-indol-2-one]
COc1ccc(-c2nc(CN3C(=O)C(c4cc(C)c(O)c(C)c4)(c4cc(C)c(O)c(C)c4)c4ccccc43)cs2)cc1 [Example 94, 3,3-Bis-(4-hydroxy-3,5-dimethyl-phenyl)-1-[2-(4-methoxy-phenyl)-thiazol-4-ylmethyl]-1,3-dihydro-indol-2-one]
COc1ccc(-c2nc(CN3C(=O)C(c4cc(C)c(O)c(C)c4)(c4cc(C)c(O)c(C)c4)c4cc(C)ccc43)cs2)cc1 [Example 95, 3,3-Bis-(4-hydroxy-3,5-dimethyl-phenyl)-1-[2-(4-methoxy-phenyl)-thiazol-4-ylmethyl]-5-methyl-1,3-dihydro-indol-2-one]
Cc1cc(C2(c3cc(C)c(O)c(C)c3)C(=O)N(Cc3ccc4ccccc4n3)c3ccccc32)cc(C)c1O [Example 97, 3,3-Bis-(4-hydroxy-3,5-dimethyl-phenyl)-1-quinolin-2-ylmethyl-1,3-dihydro-indol-2-one]
COc1ccc(-c2nc(CN3C(=O)C(c4cc(C)c(O)c(C)c4)(c4cc(C)c(O)c(C)c4)c4ccccc43)no2)cc1 [Example 99, 3,3-Bis-(4-hydroxy-3,5-dimethyl-phenyl)-1-[5-(4-methoxy-phenyl)-[1,2,4]oxadiazol-3-ylmethyl]-1,3-dihydro-indol-2-one]
C#CCN1C(=O)C(c2cc(C)c(O)c(C)c2)(c2cc(C)c(O)c(C)c2)c2ccccc21 [Example 101, 3,3-Bis-(4-hydroxy-3,5-dimethyl-phenyl)-1-prop-2-ynyl-1,3-dihydro-indol-2-one]
CC(C)=CCN1C(=O)C(c2cc(C)c(O)c(C)c2)(c2cc(C)c(O)c(C)c2)c2ccccc21 [Example 102, 3,3-Bis-(4-hydroxy-3,5-dimethyl-phenyl)-1-(3-methyl-but-2-enyl)-1,3-dihydro-indol-2-one]
C=C(C)CN1C(=O)C(c2cc(C)c(O)c(C)c2)(c2cc(C)c(O)c(C)c2)c2ccccc21 [Example 106, 3,3-Bis-(4-hydroxy-3,5-dimethyl-phenyl)-1-(2-methyl-allyl)-1,3-dihydro-indol-2-one]
COC(=O)c1ccc(CN2C(=O)C(c3cc(C)c(O)c(C)c3)(c3cc(C)c(O)c(C)c3)c3ccccc32)o1 [Example 108, 5-[3,3-Bis-(4-hydroxy-3,5-dimethyl-phenyl)-2-oxo-2,3-dihydro-indol-1-ylmethyl]-furan-2-carboxylic acid methyl ester]
CCOC(=O)CN1C(=O)C(c2cc(C)c(O)c(C)c2)(c2cc(C)c(O)c(C)c2)c2ccccc21 [Example 109, [3,3-Bis-(4-hydroxy-3,5-dimethyl-phenyl)-2-oxo-2,3-dihydro-indol-1-yl]-acetic acid ethyl ester]
Cc1cc(C2(c3cc(C)c(O)c(C)c3)C(=O)N(CCC3CCCCC3)c3ccccc32)cc(C)c1O [Example 110, 1-(2-Cyclohexyl-ethyl)-3,3-bis-(4-hydroxy-3,5-dimethyl-phenyl)-1,3-dihydro-indol-2-one]
Cc1cc(C2(c3cc(C)c(O)c(C)c3)C(=O)N(Cc3ccncc3)c3ccccc32)cc(C)c1O [Example 111, 3,3-Bis-(4-hydroxy-3,5-dimethyl-phenyl)-1-pyridin-4-ylmethyl-1,3-dihydro-indol-2-one]
Cc1cc(C2(c3cc(C)c(O)c(C)c3)C(=O)N(Cc3c(Cl)cccc3Cl)c3ccccc32)cc(C)c1O [Example 113, 1-(2,6-Dichloro-benzyl)-3,3-bis-(4-hydroxy-3,5-dimethyl-phenyl)-1,3-dihydro-indol-2-one]
Cc1cc(C2(c3cc(C)c(O)c(C)c3)C(=O)N(Cc3c(F)cccc3F)c3ccccc32)cc(C)c1O [Example 115, 1-(2,6-Difluoro-benzyl)-3,3-bis-(4-hydroxy-3,5-dimethyl-phenyl)-1,3-dihydro-indol-2-one]
Cc1cc(C2(c3cc(C)c(O)c(C)c3)C(=O)N(Cc3ccccc3N)c3ccccc32)cc(C)c1O [Example 119, 1-(2-Amino-benzyl)-3,3-bis-(4-hydroxy-3,5-dimethyl-phenyl)-1,3-dihydro-indol-2-one]
Cc1ccc(N2C(=O)C(c3cc(C)c(O)c(C)c3)(c3cc(C)c(O)c(C)c3)c3ccccc32)cc1 [Example 125, 3,3-Bis-(4-hydroxy-3,5-dimethyl-phenyl)-1-p-tolyl-1,3-dihydro-indol-2-one]
